Test results from a melting point compilation (Tetko et al.; mined from patent text by program, amines drawn as free bases though some values may be those of a salt).

Row | SMILES | melting point
1 | O=C1Nc2ccccc2S(=O)(=O)c2cc(C(F)(F)F)ccc21 | 240 to 241 °C
2 | CCOC(=O)c1cnc2sc3c(n12)CCC3 | 101 to 102 °C
3 | CCc1ncnc(O)c1I | 191 to 192 °C
4 | Cc1nn(-c2cccnc2)cc1[N+](=O)[O-] | 122 to 124 °C
5 | CC(=O)N(C)S(=O)(=O)c1cc(-n2c(=O)cc(C(F)(F)F)n(C)c2=O)ccc1Cl | 193 to 195 °C
6 | O=C(O)CCOCCc1cccc(-c2nc(=O)c3ccccc3s2)n1 | 237 °C
7 | CS(=O)(=O)c1ccc(-n2nc(CCCNC(=O)Nc3cccc(C(F)(F)F)c3)cc2-c2ccccc2)cc1 | 150 to 152 °C
8 | COc1ccc(C2=NN(CCCCCN3C(=O)c4ccccc4C3=O)C(=O)[C@H]3CC=CC[C@@H]23)cc1OC (relative stereo) | 126 to 129 °C
9 | O=C(O)c1cc([N+](=O)[O-])c(F)c(F)c1F | 128 to 129 °C
10 | CCn1nc(C)c(NC(N)=S)c1C | 248 °C
11 | CC(C)C(=O)N[C@@H](CSC(=O)C(C)(C)C)C(=O)NCCSC(=O)C(C)(C)C | 106 to 108 °C
12 | COc1ccc(CNc2n[nH]c(N=CN(C)C)c2C#N)cc1 | 147 to 148 °C
13 | COc1ccc(CNC(=O)[C@@H](NC(=O)[C@H](NCc2ccc(N(C)C)cc2)[C@H](O)[C@H](Cc2ccccc2)NC(=O)OC(C)(C)C)C(C)C)c(O)c1 | 89 to 91 °C
14 | O=c1[nH][nH]c(=O)n1-c1ccc(Cl)cc1 | 234 to 236 °C
15 | O=C1NC(=O)C(c2ccc(Br)o2)O1 (stereo not given) | 126 to 129 °C
16 | CC(=O)c1nc(C)n2c1CN=C(c1ccccc1Cl)c1cc(Cl)ccc1-2 | 234 to 236 °C
17 | COc1ccc(C[C@H](C)NS(=O)(=O)c2ccccc2)cc1 | 74.5 to 76 °C
18 | CC(C)(CO)CCCCC(CCCCC(C)(C)CO)(C(=O)O)C(=O)O | 178 to 180 °C
19 | COc1ccc(N)c(CCc2ccccn2)c1 | 77.5 to 78.5 °C
20 | ClC1(NC2(Cc3ccncc3)NN=Cc3ccncc32)C=CC=CC1 (stereo not given) | 220 to 221 °C
21 | COc1cc(CO)cc(F)n1 | 46 to 49 °C
22 | CCNC1CCN(c2c(F)cc3c(=O)c(C(=O)O)cn(CC)c3c2F)C1 (stereo not given) | 227 to 229 °C
23 | O=c1oc(-c2ccccc2)cc(O)c1SCCOc1ccccc1 | 146 to 149 °C
24 | CCN(CC)C(=O)c1ccc2cc(-c3csc(N(C)S(=O)(=O)c4ccccc4)n3)c(=O)[nH]c2c1 | 200 to 202 °C
25 | C[C@H]1C(=O)Nc2ccc(Cl)cc2N1C(=O)Oc1ccc(F)cc1 | 168 to 170 °C

Row | SMILES | melting point
26 | FC(F)(F)c1cc(Br)c2nc(C(F)(F)F)[nH]c2c1 | 127 to 130 °C
27 | COC(=O)CC(C#N)c1ccc(OC)c(OC2CCCC2)c1 (stereo not given) | 69 to 71 °C
28 | CCOC(=O)C1=C(C)NN=C(CC)C1c1ccccc1Cl (stereo not given) | 112 °C
29 | CCOP(=O)(OCC)c1ccc(N)cc1 | 112 to 116 °C
30 | OCCNc1nc2ccc(Cl)cc2c2nc(-c3ccco3)nn12 | 214 to 217 °C
31 | CC(=O)NCc1ccc(CCl)cc1 | 116 to 118 °C
32 | COc1ccc(C=O)c2cc(C#N)oc12 | 170 to 178 °C
33 | CN1Cc2c(-c3nc(CN4Cc5ccccc5C4)no3)ncn2-c2ccccc2C1=O | 155 to 160 °C
34 | O=S(=O)(Oc1ccc2sccc2c1)c1ccccc1 | 80 to 81 °C
35 | CS(=O)(=O)c1ccc(-c2cnn(-c3ccc(Cl)cc3F)c(=O)c2-c2ccc(F)cc2)cc1 | 250 to 260 °C
36 | CN(C)C(=O)Oc1ccc(C=O)c(O)c1 | 58 to 60 °C
37 | C[C@H]1C[C@@H](Nc2ccccc2)c2ccccc2N1C(=O)c1ccccn1 (relative stereo) | 157 °C
38 | CCCCCCCCOc1ccc(-c2ccc(C(=O)O[C@@H](C)C(=O)OCCCC)cc2)cc1 | 51 °C
39 | CCOC(=O)c1nn(Cc2ccc(Cl)cc2Cl)c(-c2ccc(Cl)cc2)c1C | 82 °C
40 | O=c1cc(-c2nnn[nH]2)oc2c(/C=C/c3ccc(OCCCCc4ccc(F)cc4)cc3)cccc12 | 174 to 175 °C
41 | O=C(O)c1ccc(C2=NCCO2)cc1 | > 300 °C
42 | O=c1[nH]c(=O)n2c3c(cccc13)CC2 | 314 to 315 °C
43 | CC(Oc1ncn(-c2ccc(C(F)(F)F)cc2)n1)C(=O)N(C)C (stereo not given) | 102 to 104 °C
44 | O=C(c1ccccc1)c1ccc2nc3[nH]c(=O)[nH]c3cc2c1 | > 300 °C
45 | CN(C)c1cccc(-n2c(=O)c(CCCc3ccncc3)cc3cccnc32)c1 | 124 to 127 °C
46 | Cc1cc(OC(=O)N(C)SSC(C)(C)C)cc(C)c1N=Cc1ccccc1O | 121 to 124 °C
47 | CC(=O)Nc1nc(-c2ccc(F)cc2)c(-c2ccc(=O)n(C(C)C)n2)s1 | 236 to 238 °C
48 | O=Cc1ccc(-c2ccc3nc[nH]c(=O)c3c2)o1 | 267 °C
49 | CCC(=O)N1c2cscc2C(=O)N(C)c2ccccc21 | 202 to 203 °C
50 | C=Cc1ccc(C=CC#N)cc1 | 45.8 °C

Row | SMILES | melting point
51 | CCC(C)C(=O)c1nc(C)nc2c1c(C)c(C)n2-c1c(C)cc(C)cc1C (stereo not given) | 133 to 135 °C
52 | CCCCCCCCCCCCCCCCSCC(CO)n1nnnc1C (stereo not given) | 77 to 78 °C
53 | Cn1cnnc1S(=O)CC(=O)C12CC3CC(CC(C3)C1)C2 (stereo not given) | 124 to 127 °C
54 | CCc1cc(Nc2ccc(C(Cc3ccccc3)C(=O)O)cc2)n2nccc2n1 (stereo not given) | 195 to 197 °C
55 | COc1cc(Nc2c(C#N)cnc3ccc(Br)cc23)c(Cl)cc1Cl | 232 to 234 °C
56 | CC(C)S(=O)(=O)c1cc(OCCc2ccccn2)c2[nH]nc(Nc3cnccn3)c2c1 | 195 to 196 °C
57 | CC(=O)Nc1nc2c(Oc3cc(-c4ccc(C(F)(F)F)cc4I)ncn3)cccc2s1 | 242 to 243 °C
58 | Clc1cccnc1-c1cc(OCCc2ccccn2)c2[nH]nc(Nc3nccs3)c2c1 | 185 to 187 °C
59 | O=C(OCCO)c1ncn2c1[C@@H]1CCCN1C(=O)c1sccc1-2 | 182 to 184 °C
60 | Cc1noc2cc3c(cc12)C1(CO3)C(=O)N(Cc2nc(C(=O)N(C)C)co2)c2ccccc21 (stereo not given) | 87 to 89 °C
61 | COc1cc(NC(=O)NS(=O)(=O)c2ccccc2Cl)nc(OC)n1 | 193 to 196 °C
62 | Cn1c(CO)nc2cc(Br)cnc21 | 142 to 144 °C
63 | CCOC(=O)c1cn(-c2ccc(F)cc2)c2cc(-c3cc(C)no3)ccc2c1=O | 214 to 216 °C
64 | C[C@H](NC(=O)OCc1ccccc1)C(=O)N1CCC[C@H]1C(=O)NC1CCCC1 | 118 to 119 °C
65 | COC(=O)c1ccc2sc(C)c(Cl)c2c1 | 85 to 86 °C
66 | O=C(c1ccccc1)C1CCN(CCN(C(=O)c2ccc([N+](=O)[O-])cc2)c2cccnc2)CC1 | 134 to 136 °C
67 | CC12CCC3C(CC=C4CC(O)CCC43C)C1=CCC2=O (stereo not given) | 161 to 164 °C
68 | CCCCc1nc(N)c(N=Nc2ccccc2)c(=O)[nH]1 | 266 to 270 °C
69 | COc1cc(OC)nc(N2CCN(Cc3ccc(C(C)(C)NC(C)=O)cc3)CC2)n1 | 199 to 202 °C
70 | O=C(O)c1cc(N2CCN(Cc3ccccc3)CC2)ccc1[N+](=O)[O-] | 172 °C
71 | COc1cc(C(=O)NC2CN(C)N(C)C2)cc(OC)c1OC | 163 to 166 °C
72 | O=C(Nc1ccc(C(=O)N(CCN2CCC(C(=O)c3ccc(F)cc3)CC2)c2cccnc2)cc1)c1ccccc1 | 162 to 166 °C
73 | COc1ccccc1CNc1ccc2cc(Nc3nc(C(F)(F)F)co3)ccc2n1 | 144 °C
74 | CCOc1ccc(OCC(C)(NS(=O)(=O)Cc2ccccc2)C(=O)N2CCOCC2)cc1 (stereo not given) | 109 to 111 °C
75 | COC(=O)C1=C(C)NC(C)=C(C(=O)OCCN2CCN(Cc3ccccc3)CC2)C1c1cccc([N+](=O)[O-])c1 (stereo not given) | 106 to 108 °C

Row | SMILES | melting point
76 | Cn1c(C(F)(F)F)cc(=O)n(-c2cc(OCC(=O)c3ccccc3)c(Cl)cc2F)c1=O | 152 to 153 °C
77 | c1ccc(Cn2nnc3ccc(Cn4ccnc4)cc32)cc1 | 85.4 °C
78 | CC(=O)c1cc(-c2ccncc2)[nH]c1C | 236 to 237 °C
79 | Cc1scc(-c2ccccc2)c1N=C1NCCN1 | 140 to 141 °C
80 | CCc1ccc(SC(=NNc2ccc(OC)cc2)C(C)=O)cc1 | 106 to 108 °C
81 | CC1CN(CCCCC(c2ccc(F)cc2)c2ccc(F)cc2)CCN1CC(=O)Nc1c(Cl)cc(NC(N)=O)cc1Cl (stereo not given) | 120 °C
82 | CC1Cc2c(N=C3OC(=O)C4=C3CCCC4)ccc(Cl)c2O1 (stereo not given) | 125 to 127 °C
83 | CCOC(=O)CCCCc1cn(-c2cccnc2)c2ccccc12 | 56 to 58 °C
84 | COc1ccc([C@@H](O)[C@@H](N)Cc2ccc(C(F)(F)F)cc2)cc1 (racemic) | 116 to 117 °C
85 | CCOC(=O)N1CCN(c2cc3ccccc3c(=O)[nH]2)CC1 | 191 to 192 °C
86 | O=C(CNC(=O)c1ccccc1C(=O)O)Nc1ccc(C(=O)C[N+](=O)[O-])c(Cl)c1 | 206 to 209 °C
87 | COc1ccc(C(=O)c2ccc(OCc3nc(-c4ccccc4)sc3C)cc2)c(OC(C)(C)C(=O)O)c1 | 145 to 147 °C
88 | Cc1ccc(NCCSC#N)c([N+](=O)[O-])c1 | 123 to 125 °C
89 | C=C(C)[C@@H]1CC=C(OC(=O)C2CCC(C(=O)OC3=CC[C@@H](C(=C)C)CC3)CC2)CC1 (stereo not given in full) | 89 °C
90 | COc1cc(COc2cc(C#N)n(-c3ccccc3)n2)ccc1OCc1nc(-c2ccccc2)oc1C | 120 to 121 °C
91 | O=C(O)c1ccc(C(=O)NOCC2CCc3ccccc3C2)cc1 (stereo not given) | 203 to 206 °C
92 | CCC(Oc1ccccc1OC)C(=O)OC1CC(O)C=C2C=CC(C)C(CCC3CC(O)CC(=O)O3)C21 (mixture of isomers) | 116 to 117 °C
93 | Cn1cc(Oc2ccccc2)c(=O)c(-c2ccc(Cl)c(C(F)(F)F)c2)c1 | 130 to 131 °C
94 | O=C(NC1N=C(c2ccccc2F)c2ccccc2NC1=O)c1ccc(Cl)cc1 (racemic) | 258 to 259 °C
95 | Nc1cnc2cccnc2c1O | 315 to 320 °C
96 | O=[N+]([O-])c1ccc(Oc2ccc(N3CCN(c4ccncc4)CC3)cc2)nc1 | 174 to 175 °C
97 | COCC1CN(c2ccc(Br)nc2)C(=O)O1 (racemic) | 108 to 110 °C
98 | O=C1Nc2ccccc2C12COc1cc3c(cc12)N(Cc1ccccn1)CC=N3 (stereo not given) | 232 to 233 °C
99 | CS(=O)(=O)OCCc1cc([N+](=O)[O-])ccc1COS(C)(=O)=O | 88 to 89 °C
100 | C[C@H]1CCCC(C)(C)[C@@H]1[C@H](O)c1ccc(C#N)c(F)c1 | 114 to 116 °C
